This is an account of results in publication PMC3156385 (Chemical research in toxicology, 2011).

One series has as its target T1, P450 1A2 (Homo sapiens, UniProt P05177).
T1 sequence (P05177 1-516): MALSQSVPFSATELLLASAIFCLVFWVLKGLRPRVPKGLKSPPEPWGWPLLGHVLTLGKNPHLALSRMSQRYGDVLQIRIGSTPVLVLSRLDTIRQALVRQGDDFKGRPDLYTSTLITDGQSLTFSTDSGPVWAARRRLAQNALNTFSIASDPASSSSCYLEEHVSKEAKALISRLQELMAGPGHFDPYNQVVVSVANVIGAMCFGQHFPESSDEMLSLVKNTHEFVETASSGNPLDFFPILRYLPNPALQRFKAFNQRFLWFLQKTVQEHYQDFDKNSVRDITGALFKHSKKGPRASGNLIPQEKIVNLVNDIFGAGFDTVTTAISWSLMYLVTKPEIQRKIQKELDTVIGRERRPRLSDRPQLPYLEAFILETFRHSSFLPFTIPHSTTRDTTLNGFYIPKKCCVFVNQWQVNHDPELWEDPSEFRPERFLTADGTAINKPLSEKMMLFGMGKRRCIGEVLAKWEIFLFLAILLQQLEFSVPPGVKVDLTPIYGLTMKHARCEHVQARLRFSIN
Description: Inhibition of P450 1A2-dependent EROD activity. The class given is biochemical.

Another series addresses T2, rat liver P450 1A1 (Rattus norvegicus, UniProt P00185).
T2 sequence (P00185 1-524): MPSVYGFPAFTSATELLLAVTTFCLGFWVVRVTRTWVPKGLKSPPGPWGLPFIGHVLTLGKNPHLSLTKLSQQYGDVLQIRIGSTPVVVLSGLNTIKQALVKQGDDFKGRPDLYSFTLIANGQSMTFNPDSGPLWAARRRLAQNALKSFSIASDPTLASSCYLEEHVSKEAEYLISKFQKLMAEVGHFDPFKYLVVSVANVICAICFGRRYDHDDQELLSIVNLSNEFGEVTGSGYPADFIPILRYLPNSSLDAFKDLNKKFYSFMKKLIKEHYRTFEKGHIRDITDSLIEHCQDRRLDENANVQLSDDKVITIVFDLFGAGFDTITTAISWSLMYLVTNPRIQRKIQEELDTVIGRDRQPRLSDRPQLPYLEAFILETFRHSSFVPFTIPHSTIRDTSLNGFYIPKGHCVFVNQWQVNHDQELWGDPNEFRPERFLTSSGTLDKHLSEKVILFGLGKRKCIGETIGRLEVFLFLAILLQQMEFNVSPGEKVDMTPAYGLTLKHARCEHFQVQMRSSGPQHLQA
The class given is binding. Conditions: 1.5 µM rat P450 1A1 (low-spin); 1.25~80 µM BSC.

Regarding `N#C[Se]Cc1ccccc1` [BSC, benzyl selenocyanate], the half-maximal inhibitory concentration (IC50) (as a rule, the point on the concentration scale where inhibition reaches its midpoint) on P450 1A2 turned out to be 1300 ± 220 nM. The spectral changes result at rat liver P450 1A1 is on record as “did not show any spectral changes”.
